For 19 compounds, IC50 results are on record in patent US12173007B2, “Imidazopyridazine IL-17 inhibitor compounds” (Janssen Pharmaceutica NV, priority 2021, dated 2024).

The subject of the first assay is IL-17A-induced G-CSF production in human normal keratinocyte (NHK). Kind of assay: NHK assay: IL-17A-induced G-CSF production in normal human keratinocytes. It is filed as cell-based. The conditions noted are these: Homo sapiens, Keratinocyte, 24 h, IL-17A 5 ng/mL, G-CSF by HTRF, average if tested more than once. On the procedure:
IL-17A acts directly on keratinocytes through binding to dimeric receptor IL-17RA/RC and drives the production of a number of inflammatory mediators known to be elevated in psoriasis lesional tissue. IL-17A small molecule inhibitors that block the IL-17A to interact with IL-17R would inhibit the IL-17A signaling in its targeted cells such as keratinocytes. The compound functional activity is evaluated for its impact on IL-17A-induced G-CSF production in human normal keratinocyte (NHK).
Adult normal human keratinocytes are cultured in keratinocyte growth medium (Lonza) in a flask till reaching ˜90% confluence, then cells are transferred to a 384-well plate at density of 3000-4000 cell/well. Recombinant human IL-17A (Gibco PHC9174) is pre-incubated with titrated compound or DMSO for 1 h at rt then added to the cell culture plate. The final concentration of IL-17A is 5 ng/mL and DMSO is 0.2%, in the culture containing 5% FBS. Cells are cultured/treated for 24 h at 37° C. Supernatants are collected and G-CSF production is measured through HTRF technology using Human G-CSF Kit (CisBio). G-CSF concentration was extrapolated from the standard curve and IC50 is determined using GraphPad Prism. Cell viability is also evaluated using CellTiter-Glo kit (Promega) and effect of compound on cell viability is compared to DMSO control.
(In general: TR-FRET usually uses a lanthanide donor and a delayed reading to cut background.)
The compound `COC[C@H](c1cnn2cc([C@H](CC(C)(C)C(F)(F)F)NC(=O)c3nonc3C)nc2c1)N1CC(F)(F)CNC1=O` [Example 66, N—((S)-1-(7-((S)-1-(5,5-Difluoro-2-oxotetrahydropyrimidin-1(2H)-yl)-2-methoxyethyl)imidazo[1,2-b]pyridazin-2-yl)-4,4,4-trifluoro-3,3-dimethylbutyl)-4-methyl-1,2,5-oxadiazole-3-carboxamide] yielded a half-inhibitory concentration (IC50) of 50 to 100 nM.

Compound `Cc1nonc1C(=O)N[C@H](c1cn2ncc(C(COC3CCC3)N3CC(F)(F)CNC3=O)cc2n1)C1CCC(F)(F)CC1` (single isomer, unassigned) [Example 57, N—((S)-(7-((S*)-2-Cyclobutoxy-1-(5,5-difluoro-2-oxotetrahydropyrimidin-1(2H)-yl)ethyl)imidazo[1,2-b]pyridazin-2-yl)(4,4-difluorocyclohexyl)methyl)-4-methyl-1,2,5-oxadiazole-3-carboxamide] came in with a concentration for half-maximal inhibition (IC50) of less than 50 nM.

`CC(C)(C[C@H](NC(=O)c1nonc1C1CC1)c1cn2ncc([C@@H](COC3CC3)N3CC(F)(F)CNC3=O)cc2n1)C(F)(F)F` [Example 44, N—((S)-1-(7-((S)-2-Cyclopropoxy-1-(5,5-difluoro-2-oxotetrahydropyrimidin-1(2H)-yl)ethyl)imidazo[1,2-b]pyridazin-2-yl)-4,4,4-trifluoro-3,3-dimethylbutyl)-4-cyclopropyl-1,2,5-oxadiazole-3-carboxamide] returned an IC50 of less than 50 nM.

Turning to `COC[C@H](c1cnn2cc([C@@H](NC(=O)c3nonc3C3CC3)[C@@H](C)O[C@H](C)C(F)(F)F)nc2c1)N1CC(F)(F)CNC1=O` [Example 42, 4-Cyclopropyl-N-((1R,2R)-1-(7-((S)-1-(5,5-difluoro-2-oxotetrahydropyrimidin-1(2H)-yl)-2-methoxyethyl)imidazo[1,2-b]pyridazin-2-yl)-2-(((R)-1,1,1-trifluoropropan-2-yl)oxy)propyl)-1,2,5-oxadiazole-3-carboxamide], the IC50 was less than 50 nM.

Compound `COC[C@H](c1cnn2cc([C@@H](CCC(C)(C)C(F)(F)F)NC(=O)c3nonc3C)nc2c1)N1CC(F)(F)CNC1=O` [Example 67, N—((R)-1-(7-((S)-1-(5,5-Difluoro-2-oxotetrahydropyrimidin-1(2H)-yl)-2-methoxyethyl)imidazo[1,2-b]pyridazin-2-yl)-5,5,5-trifluoro-4,4-dimethylpentyl)-4-methyl-1,2,5-oxadiazole-3-carboxamide] had an IC50 of more than 100 nM.

`Cc1nonc1C(=O)N[C@H](c1cn2ncc([C@@H](C3CC3)N3CCC4(CC4)NC3=O)cc2n1)C1CCC(F)(F)CC1` [Example 47, N—[(S)-[7-[(R)-Cyclopropyl-(7-oxo-6,8-diazaspiro[2.5]octan-6-yl)methyl]imidazo[1,2-b]pyridazin-2-yl]-(4,4-difluorocyclohexyl)methyl]-4-methyl-1,2,5-oxadiazole-3-carboxamide]: the IC50 was more than 100 nM.

For the compound `COC[C@H](c1cnn2cc([C@@H](NC(=O)c3nonc3C3CC3)[C@H]3[C@@H]4CC(F)(F)C[C@@H]43)nc2c1)N1CC(F)(F)CNC1=O` (relative stereo) [Example 51, 4-Cyclopropyl-N—((S*)-(7-((S)-1-(5,5-difluoro-2-oxotetrahydropyrimidin-1(2H)-yl)-2-methoxyethyl)imidazo[1,2-b]pyridazin-2-yl)((1R,5S,6r)-3,3-difluorobicyclo[3.1.0]hexan-6-yl)methyl)-1,2,5-oxadiazole-3-carboxamide], the IC50 is less than 50 nM.

Take `COC[C@H](c1cnn2cc([C@@H](NC(=O)c3nonc3C)[C@@H](C)OC(C)(C)C(F)(F)F)nc2c1)N1CC(F)(F)CNC1=O` (relative stereo) [Example 60, N-((1R*,2R*)-1-(7-((S)-1-(5,5-Difluoro-2-oxotetrahydropyrimidin-1(2H)-yl)-2-methoxyethyl)imidazo[1,2-b]pyridazin-2-yl)-2-((1,1,1-trifluoro-2-methylpropan-2-yl)oxy)propyl)-4-methyl-1,2,5-oxadiazole-3-carboxamide]: the IC50 is less than 50 nM.

`Cc1nonc1C(=O)N[C@@H](COC(C)(C)C(F)(F)F)c1cn2ncc([C@@H](C3CC3)N3CC(F)(F)CNC3=O)cc2n1` [Example 62, N—((R)-1-(7-((R)-Cyclopropyl(5,5-difluoro-2-oxotetrahydropyrimidin-1(2H)-yl)methyl)imidazo[1,2-b]pyridazin-2-yl)-2-((1,1,1-trifluoro-2-methylpropan-2-yl)oxy)ethyl)-4-methyl-1,2,5-oxadiazole-3-carboxamide] registered a half-maximal inhibitory concentration (IC50) of 50 to 100 nM.

The compound `C[C@H](c1cnn2cc([C@H](COC(C)(C)C(F)(F)F)NC(=O)c3nonc3C3CC3)nc2c1)N1CC(F)(F)CNC1=O` [Example 87, 4-Cyclopropyl-N—((R)-1-(7-((R)-1-(5,5-difluoro-2-oxotetrahydropyrimidin-1(2H)-yl)ethyl)imidazo[1,2-b]pyridazin-2-yl)-2-((1,1,1-trifluoro-2-methylpropan-2-yl)oxy)ethyl)-1,2,5-oxadiazole-3-carboxamide] had an IC50 of less than 50 nM.

In the case of `CCOCC(c1cnn2cc([C@@H](NC(=O)c3nonc3C)C3CCC(F)(F)CC3)nc2c1)N1CC(F)(F)CNC1=O` (single isomer, unassigned) [Example 35, N—((S)-(7-((S*)-1-(5,5-Difluoro-2-oxotetrahydropyrimidin-1(2H)-yl)-2-ethoxyethyl)imidazo[1,2-b]pyridazin-2-yl)(4,4-difluorocyclohexyl)methyl)-4-methyl-1,2,5-oxadiazole-3-carboxamide], the IC50 is less than 50 nM.

In turn, `COC[C@H](c1cnn2cc([C@H](COC(C)(C)C(F)(F)F)NC(=O)c3nonc3C3CC3)nc2c1)N1CC(F)(F)CNC1=O` [Example 64, 4-Cyclopropyl-N—((R)-1-(7-((S)-1-(5,5-difluoro-2-oxotetrahydropyrimidin-1(2H)-yl)-2-methoxyethyl)imidazo[1,2-b]pyridazin-2-yl)-2-((1,1,1-trifluoro-2-methylpropan-2-yl)oxy)ethyl)-1,2,5-oxadiazole-3-carboxamide] registered an IC50 of less than 50 nM.

In turn, `Cc1nonc1C(=O)N[C@@H](CC(C)(C)C(F)(F)F)c1cn2ncc([C@@H](COC3CC3)N3CC(F)(F)CNC3=O)cc2n1` [Example 50, N—((S)-1-(7-((S)-2-Cyclopropoxy-1-(5,5-difluoro-2-oxotetrahydropyrimidin-1(2H)-yl)ethyl)imidazo[1,2-b]pyridazin-2-yl)-4,4,4-trifluoro-3,3-dimethylbutyl)-4-methyl-1,2,5-oxadiazole-3-carboxamide] came in with an IC50 of less than 50 nM.

As to `C[C@H](c1cnn2cc([C@H](CC(C)(C)C(F)(F)F)NC(=O)c3nonc3C3CC3)nc2c1)N1CC(F)(F)CNC1=O` [Example 88, 4-Cyclopropyl-N—((S)-1-(7-((R)-1-(5,5-difluoro-2-oxotetrahydropyrimidin-1(2H)-yl)ethyl)imidazo[1,2-b]pyridazin-2-yl)-4,4,4-trifluoro-3,3-dimethylbutyl)-1,2,5-oxadiazole-3-carboxamide], the IC50 was less than 50 nM.

Take `COC[C@H](c1cnn2cc([C@H](NC(=O)c3nonc3C3CC3)[C@@H]3CCC(F)(F)C3)nc2c1)N1CC(F)(F)CNC1=O` (relative stereo) [Example 52, 4-Cyclopropyl-N—((R*)-(7-((S)-1-(5,5-difluoro-2-oxotetrahydropyrimidin-1(2H)-yl)-2-methoxyethyl)imidazo[1,2-b]pyridazin-2-yl)((R*)-3,3-difluorocyclopentyl)methyl)-1,2,5-oxadiazole-3-carboxamide]: the IC50 was less than 50 nM.

Turning to `Cc1nonc1C(=O)N[C@H](c1cn2ncc(C(COC(C)C)N3CC(F)(F)CNC3=O)cc2n1)C1CCC(F)(F)CC1` (single isomer, unassigned) [Example 58, N—((S)-(7-((S*)-1-(5,5-Difluoro-2-oxotetrahydropyrimidin-1(2H)-yl)-2-isopropoxyethyl)imidazo[1,2-b]pyridazin-2-yl)(4,4-difluorocyclohexyl)methyl)-4-methyl-1,2,5-oxadiazole-3-carboxamide], the IC50 was less than 50 nM.

The compound `CC(C)n1nccc1C(=O)N[C@H](c1cn2ncc([C@@H](COC3CC3)N3CC(F)(F)CNC3=O)cc2n1)C1CCC(F)(F)CC1` [Example 37, N—((S)-(7-((S)-2-Cyclopropoxy-1-(5,5-difluoro-2-oxotetrahydropyrimidin-1(2H)-yl)ethyl)imidazo[1,2-b]pyridazin-2-yl)(4,4-difluorocyclohexyl)methyl)-1-isopropyl-1H-pyrazole-5-carboxamide] displayed an IC50 of less than 50 nM.

On to `C[C@H](c1cnn2cc([C@@H](NC(=O)c3nonc3C3CC3)C3CCC(F)(F)CC3)nc2c1)N1CC(F)(F)CNC1=O` [Example 63, 4-Cyclopropyl-N—((S)-(7-((R)-1-(5,5-difluoro-2-oxotetrahydropyrimidin-1(2H)-yl)ethyl)imidazo[1,2-b]pyridazin-2-yl)(4,4-difluorocyclohexyl)methyl)-1,2,5-oxadiazole-3-carboxamide], for which the IC50 is less than 50 nM.

The same assay, now with this note: IL-17A 5 ng/mL, 24 h, G-CSF by HTRF; average if tested more than once.
Compound “4-Cyclopropyl-N—((R)-1-(7-((S)-1-(5,5-difluoro-2-oxotetrahydropyrimidin-1(2H)-yl-4,4,6,6-d4)-2-methoxyethyl)imidazo[1,2-b]pyridazin-2-yl)-2-((1,1,1-trifluoro-2-methylpropan-2-yl)oxy)ethyl)-1,2,5-oxadiazole-3-carboxamide [Example 39]” displayed an IC50 of less than 50 nM.

For orientation: IC50 means the concentration needed to halve the response being measured. High values mean lower potency, low ones higher potency.
